From US10738054B2, “Synergistic compositions comprising (R)-dimiracetam (1) and (S)-dimiracetam (2) in a non-racemic ratio” (Metys Pharmaceuticals AG, priority 2017, dated 2020)
Values joined by “and” are separate entries in the source; they are usually repeats but may differ in a detail not shown here. Identical values can stand only once.

How the values were obtained:
[1] = Rat plasma concentration-time profiles after oral administration; assay type: in vivo; details: for rat plasma concentration-time profiles after oral administration: 75 mg/kg p.o. enantiomer vs 150 mg/kg p.o. racemate (FIG. 4A, 4B); for interconversion of enantiomers in vivo: rat, oral administration
Procedure: FIG. 4A: Comparison of the plasma concentration-time profiles of the (R)-enantiomer after oral administration of (R)-dimiracetam (75 mg/kg) and after oral administration of racemic dimiracetam (150 mg/kg)
FIG. 4B: Comparison of the plasma concentration-time profiles of the (S)-enantiomer after oral administration of (S)-dimiracetam (2) (75 mg/kg) and after oral administration of racemic dimiracetam (150 mg/kg).

[2] = system: NMDA plus glycine-evoked [3H]-D-aspartic acid release from rat spinal synaptosomes; assay: Inhibition of NMDA+glycine-induced glutamate ([3H]-D-Asp) release from rat spinal synaptosomes (Example 2); assay type: biochemical; details: for IC50: rat spinal synaptosomes, 10 μM NMDA plus 1 μM glycine, read-out: estimated IC50 for inhibition of NMDA plus glycine-evoked [3H]-D-aspartic acid release; for Percent inhibition of NMDA + glycine-induced glutamate release from rat spinal synaptosomes: mean ± S.E.M. of 3 to 6 experiments
Procedure: Rat spinal synaptosomes, free from glial contaminants, were prepared according to the method of Paluzzi S. et al., 2007, a modification of the method of Nakamura et al., 1993, as follows.
Sprague-Dawley rats aged between 90 to 130 days were used. Animals were housed at constant temperature (22±1° C.) and relative humidity (50%) under a regular light-dark schedule (lights 7.00 am-7.00 pm). Food and water were freely available.
Rats were sacrificed by decapitation and the whole spinal cord was rapidly removed and maintained at 4° C. Rat spinal cord was homogenized (90 rpm; 24 up-down strokes in 2 min) in 10 volumes (1 g tissue in 10 ml) of ice cold 0.32 M sucrose, buffered at pH 7.4 using a glass-teflon tissue grinder (clearance 0.25 mm). The homogenate was centrifuged (5 min, 1000 g at 4° C.) to remove nuclei and debris, and the supernatant was gently stratified at 0-4° C. on a discontinuous Percoll® (Sigma Aldrich, St Louis, Mo., USA) gradient (2, 6, 10 and 20% v/v in Tris-buffered sucrose) and centrifuged at 33,500 g for 5 min. The layer between 10 and 20% Percoll (i.e. the synaptosomal fraction) was collected and washed by centrifugation in physiological medium having the following composition (mM): NaCl, 140; KCl, 3; MgSO4 1.2; NaH2PO4, 1.2; NaHCO3 5; CaCl2 1.2; HEPES 10; glucose, 10; pH 7.4. Protein content was measured according to Bradford M M, 1976 using bovine serum albumin as a standard.
Synaptosomes (about 70 μg protein) were incubated at 37° C. for 15 min in 2.5 mL of 0.05 μM [^3H]-D-aspartate ([^3H]-D-Asp; Perkin Elmer Italia, Monza, Milano, Italy). Then, the suspension was diluted to 122.5 mL with physiological medium maintained at 37° C. and 5 mL aliquots of the synaptosomal suspension were layered on microporous filters placed at the bottom of a set of 24 parallel 25 mL superfusion chambers maintained at 37° C. (Superfusion system, Ugo Basile, Comerio, Varese, Italy). Superfusion was then started with physiological medium at a rate of 0.5 mL/min, and was continued for 46 min. Starting at t=37 min, nine consecutive 1-min filtrate samples were collected. NMDA (10 μM) and glycine (1 μM) were introduced at the end of the first sample collected and maintained until the end of the experiment.
The radioactivity contained in each filtrate sample was measured by scintillographic methods, using a Ultima Gold scintillation fluid (Perkin-Elmer Milan, Italy). Each whole 0.5 mL sample was counted for radioactivity by adding 3 mL of scintillation fluid.
Tritium content measured in each sample was expressed as fractional percent (i.e. percent content of each sample with respect to total [^3H] content at the onset of the respective collection period). Drug effects were evaluated by calculating the ratio between the effluxes in the seventh fraction collected (in which the maximum effect of NMDA was reached) and that of the first fraction (basal release, prior to application of NMDA+glycine). This ratio was compared to the same seventh- and first-fraction ratio obtained under control conditions.
The possible effects of racemic and non-racemic dimiracetam mixtures on NMDA plus glycine-induced neurotransmitter release from rat spinal cord synaptosomes were assessed.

[3] = system: rats pre-treated with 2′,3′-dideoxycytidine (ddC, zalcitabine); details: cited from earlier work
[4] = system: NMDA-plus-glycine-triggered release of [3H]-D-aspartate in synaptosomal preparations of the hippocampus; details: hippocampus synaptosomes; read-out: IC50 for inhibiting NMDA-plus-glycine-triggered release of [3H]-D-aspartate; cited from earlier work
[5] = system: NMDA+glycine-induced [3H]-D-aspartate release in rat spinal cord synaptosomes; assay: In vitro inhibition of pre-loaded [3H]-D-aspartate release induced by NMDA+glycine in rat spinal cord synaptosomes (Example 5); assay type: biochemical; details: tested at 10 nM
Procedure: These experiments were performed following the previously published methodology (Fariello et al. Neuropharmacology. 2014, (81), 85-94) and the results are shown in FIG. 5.

[6] = system: NMDA-plus-glycine-triggered [3H]-D-aspartate release in synaptosomal preparations of the spinal cord; details: spinal cord synaptosomes; read-out: IC50 for inhibiting NMDA-plus-glycine-triggered [3H]-D-aspartate release; cited from earlier work
[7] = system: rats with oxaliplatin-induced cold sensitivity; assay: Cold plate test in oxaliplatin model; assay type: in vivo, rat; details: oxaliplatin 2.4 mg/kg i.p.
Procedure: (§1) After repeated oral administration of either racemic dimiracetam or the preferred inventive composition with an enantiomeric excess of (R)-dimiracetam of 50%, oxaliplatin-induced mechanical hyperalgesia was measured. Pain threshold was assessed by a Randall & Selitto analgesymeter (Leighton et al. Br. J. Pharmacol. 93:553-560, 1988) before the morning administration. In the morning of day 28, also mechanical allodynia (Sakurai et al. Pain 147:165-74, 2009) and cold sensitivity were assessed, using the von Frey and cold plate tests (Di Cesare Mannelli et al. Exp Neurol 261:22-33, 2014), respectively. […] Development of tolerance was not observed.
The animals were placed in a stainless box (12 cm×20 cm×10 cm) with a cold plate as floor. The temperature of the cold plate was kept constant at 4° C.±1° C. Pain-related behaviors (i.e. lifting and licking of the hind paw) were observed and the time (s) of the first sign was recorded. The cut-off time of the latency of paw lifting or licking was set at 60 s (Di Cesare Mannelli et al. Exp Neurol 261:22-33, 2014).

[8] = system: rats with oxaliplatin-induced mechanical allodynia; assay: Von Frey test in oxaliplatin model; assay type: in vivo, rat; details: oxaliplatin 2.4 mg/kg i.p.
Procedure: as §1
The animals were placed in 20 cm×20 cm Plexiglas boxes equipped with a metallic mesh floor, 20 cm above the bench. Animals were allowed to habituate themselves to their environment for 15 min before the test. An electronic Von Frey hair unit (Ugo Basile, Varese, Italy) was used: the withdrawal threshold was evaluated by applying forces ranging from 0 to 50 g with a 0.2 g accuracy. […] The paw sensitivity threshold was defined as the minimum force required to elicit a robust and immediate withdrawal reflex of the paw. Voluntary movements associated with locomotion were not considered as a withdrawal response. Stimuli were applied to each posterior paw at 5 s intervals. Measurements were repeated 5 times and the final value was obtained by averaging the 5 measurements (Sakurai et al. Pain 147:165-74, 2009).

[9] = system: rats with oxaliplatin-induced mechanical hyperalgesia; assay: Paw pressure test (Randall & Selitto) in oxaliplatin model; assay type: in vivo, rat; details: oxaliplatin 2.4 mg/kg i.p.
Procedure: Paw mechanical sensitivity was determined using a Randall & Selitto apparatus (Randall and Selitto, 1957) exerting a force that increases at constant rate (32 g/s). The stimulus causing paw withdrawal was evaluated before and at different times after treatment. Results represent the mean of mechanical thresholds for paw withdrawal expressed as grams. To avoid possible damage to the rat paw the maximum applied force was set at 240 g. In the single administration protocol, paw pressure tests were performed before (pre-dose) and at regular intervals after treatment.
Peripheral sensory neuropathy was induced in adult rats, by administration of oxaliplatin (Tocris) at 2.4 mg/kg i.p. in saline once daily for 5 consecutive days every week for three weeks (cumulative dose 36 mg/kg) according to Cavaletti et al., 2001. Starting from day 21 after the first oxaliplatin administration, the effect of repeated oral administration of racemic dimiracetam or the preferred inventive composition with an enantiomeric excess of (R)-dimiracetam of 50% corresponding to a 3:1 (R):(S) ratio of the enantiomers on oxaliplatin-induced mechanical hyperalgesia was assessed.
After repeated oral administration of either racemic dimiracetam or the preferred inventive composition with an enantiomeric excess of (R)-dimiracetam of 50%, oxaliplatin-induced mechanical hyperalgesia was measured. Pain threshold was assessed by a Randall & Selitto analgesymeter before the morning administration. […] Development of tolerance was not observed.
as §1
Paw mechanical sensitivity was determined using a Randall & Selitto apparatus exerting a force that increases at constant rate (32 g/s). The stimulus at which rats withdrew the paw was evaluated before and at different times after treatment. Results represent the mean of mechanical thresholds expressed as grams. To avoid any possible damage to the animal paw the maximum applied force was fixed at 240 g (Leighton et al. Br. J. Pharmacol. 93:553-560, 1988).

O=C1CN2C(=O)CC[C@H]2N1 [(S)-dimiracetam, (S)-3,6,7,7a-tetrahydro-1H-pyrrolo[1,5-a]imidazole-2,5-dione]
rat plasma concentration-time profiles after oral administration [1]: identical
interconversion of enantiomers in vivo [1]: do not to interconvert in vivo
IC50 [2]: 418 nM
efficacy response after a single oral dose [3]: smaller response than the corresponding dose of the (R)-enantiomer

O=C1CN2C(=O)CCC2N1 (racemic) [racemic dimiracetam, (RS)-3,6,7,7a-tetrahydro-1H-pyrrolo[1,5-a]imidazole-2,5-dione]
IC50 [4]: ~3000 nM
Percent inhibition of NMDA + glycine-induced glutamate release from rat spinal synaptosomes ([2]; 0.1 nM): 9 ± 13%
Percent inhibition of NMDA + glycine-induced glutamate release from rat spinal synaptosomes ([2]; 1 nM): 29 ± 3%
Percent inhibition of NMDA + glycine-induced glutamate release from rat spinal synaptosomes ([2]; 10 nM): 35 ± 4%
inhibition of NMDA plus glycine-evoked [3H]-D-aspartic acid release ([2]; at a concentration of 10 nM): 36%
IC50 [2]: 14.6 nM and 15 nM
efficacy response after a single oral dose [3]: superior response compared to either (R)- or (S)-dimiracetam alone
% inhibition (mean) [5]: 35.4%
IC50 [6]: ~20 nM
Cold plate, licking latency, Day 28 ([7]; 15 mg/kg b.i.d.): 14.8 ± 1.5 s
Cold plate, licking latency, Pre-test ([7]; 15 mg/kg b.i.d.): 21.5 ± 1.0 s
Cold plate, licking latency, Day 28 ([7]; 50 mg/kg b.i.d.): 15.4 ± 1.0 s
Cold plate, licking latency, Pre-test ([7]; 50 mg/kg b.i.d.): 22.0 ± 0.8 s
Von Frey paw withdrawal, Day 28 ([8]; 15 mg/kg b.i.d.): 16.0 ± 1.5 g
Von Frey paw withdrawal, Pre-test ([8]; 15 mg/kg b.i.d.): 21.4 ± 1.0 g
Von Frey paw withdrawal, Day 28 ([8]; 50 mg/kg b.i.d.): 18.5 ± 2.3 g
Von Frey paw withdrawal, Pre-test ([8]; 50 mg/kg b.i.d.): 21.4 ± 0.5 g
Randall & Selitto, paw pressure, Day 28 ([9]; 15 mg/kg b.i.d.): 48.7 ± 2.5 g
Randall & Selitto, paw pressure, Pre-test ([9]; 15 mg/kg b.i.d.): 68.1 ± 1.2 g
Randall & Selitto, paw pressure, Day 28 ([9]; 50 mg/kg b.i.d.): 55.2 ± 1.0 g
Randall & Selitto, paw pressure, Pre-test ([9]; 50 mg/kg b.i.d.): 67.1 ± 0.8 g

O=C1CN2C(=O)CC[C@@H]2N1 [(R)-dimiracetam, (R)-3,6,7,7a-tetrahydro-1H-pyrrolo[1,5-a]imidazole-2,5-dione]
rat plasma concentration-time profiles after oral administration [1]: identical
interconversion of enantiomers in vivo [1]: do not to interconvert in vivo
IC50 [2]: 123 nM
efficacy response after a single oral dose [3]: partial efficacy response
